The subject of one experiment is LoVo (CCL-229) cells. Nature of the experiment: Tumor cell anti-proliferation assay (CTG assay). Type of experiment: cell-based. As to conditions: LoVo human colorectal cancer cells, 96 h, CellTiter-Glo. Summed up: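 Cells seeded and held 20–24 h, then exposed to 3-fold serial dilutions of compound (final DMSO 0.5%) for 96 h at 37 °C, 5% CO2. Viability measured by CellTiter-Glo luminescence; IC50 and GI50 from a 4-parameter logistic fit.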
On the technique in general: In ATP-based viability assays light output follows the ATP content of the culture.

A further experiment deals with ATR kinase (Homo sapiens (Human), UniProt Q13535). Nature of the experiment: ATR inhibition assay (mobility shift assay, phosphorylation of FAM-RAD17). To be noted: ATR kinase (Eurofins), substrate FAM-RAD17, mobility shift. The class given is biochemical. As to the method: Assay 1: ATR Inhibition Assay
Detection of ATR kinase activity utilized the Mobility shift assay to measure the phosphorylation of the substrate protein FAM-RAD17 (GL, Cat. No. 514318, Lot. No. P19042-MJ524315). The assay was developed and conducted at Chempartner. All the test compounds were dissolved in 100% DMSO at concentration of 20 mM, then prepare compounds and conducted the assay as follows: • 1) Transfer 80 μl 20 mM compound to 40 μl of 100% DMSO in a 96-well plate. • 2) Serially dilute the compound by transferring 20 μl to 60 μl of 100% DMSO in the next well and so forth for a total of 10 concentrations. • 3) Add 100 μl of 100% DMSO to two empty wells for no compound control and no enzyme control in the same 96-well plate. Mark the plate as source plate. • 4) Transfer 40 μl of compound from source plate to a new 384-well plate as the intermediate plate. • 5) Transfer 60 nl compounds to assay plate by Echo. • 6) Add ATR kinase (Eurofins, Cat. No. 14-953, Lot. No. D14 JP007N) into Kinase base buffer (50 mM HEPES, pH 7.5; 0.0015% Brij-35; 0.01% Triton) to prepare 2× enzyme solution, then add 10 μl of 2× enzyme solution to each well of the 384-well assay plate, incubate at room temperature for 10 min. • 7) Add FAM-RAD17 and ATP (Sigma, Cat. No. A7699-1G, CAS No. 987-65-5) in the kinase base buffer to prepare 2×peptide solution, then add 10 μl to the assay plate. • 8) Incubate at 28° C. for specified period of time. Add 40 μl of stop buffer (100 mM HEPES, pH 7.5; 0.015% Brij-35; 0.2% Coating Reagent #3; 50 mM EDTA) to stop reaction. • 9) Collect data on Caliper. Convert conversion values to inhibition values.
Percent inhibition=(max−conversion)/(max−min)*100 wherein “max” stands for DMSO control; “min” stands for low control.
Fit the data in XLFit excel add-in version 5.4.0.8 to obtain IC50 values. Equation used is:
Y=Bottom+(Top−Bottom)/(1+(IC50/X)^HillSlope) wherein X means concentration in a format not transformed to logarithms.

Where only a bound is given, the exact number is not on record here.

Sequence of ATR kinase (Q13535 whole entry): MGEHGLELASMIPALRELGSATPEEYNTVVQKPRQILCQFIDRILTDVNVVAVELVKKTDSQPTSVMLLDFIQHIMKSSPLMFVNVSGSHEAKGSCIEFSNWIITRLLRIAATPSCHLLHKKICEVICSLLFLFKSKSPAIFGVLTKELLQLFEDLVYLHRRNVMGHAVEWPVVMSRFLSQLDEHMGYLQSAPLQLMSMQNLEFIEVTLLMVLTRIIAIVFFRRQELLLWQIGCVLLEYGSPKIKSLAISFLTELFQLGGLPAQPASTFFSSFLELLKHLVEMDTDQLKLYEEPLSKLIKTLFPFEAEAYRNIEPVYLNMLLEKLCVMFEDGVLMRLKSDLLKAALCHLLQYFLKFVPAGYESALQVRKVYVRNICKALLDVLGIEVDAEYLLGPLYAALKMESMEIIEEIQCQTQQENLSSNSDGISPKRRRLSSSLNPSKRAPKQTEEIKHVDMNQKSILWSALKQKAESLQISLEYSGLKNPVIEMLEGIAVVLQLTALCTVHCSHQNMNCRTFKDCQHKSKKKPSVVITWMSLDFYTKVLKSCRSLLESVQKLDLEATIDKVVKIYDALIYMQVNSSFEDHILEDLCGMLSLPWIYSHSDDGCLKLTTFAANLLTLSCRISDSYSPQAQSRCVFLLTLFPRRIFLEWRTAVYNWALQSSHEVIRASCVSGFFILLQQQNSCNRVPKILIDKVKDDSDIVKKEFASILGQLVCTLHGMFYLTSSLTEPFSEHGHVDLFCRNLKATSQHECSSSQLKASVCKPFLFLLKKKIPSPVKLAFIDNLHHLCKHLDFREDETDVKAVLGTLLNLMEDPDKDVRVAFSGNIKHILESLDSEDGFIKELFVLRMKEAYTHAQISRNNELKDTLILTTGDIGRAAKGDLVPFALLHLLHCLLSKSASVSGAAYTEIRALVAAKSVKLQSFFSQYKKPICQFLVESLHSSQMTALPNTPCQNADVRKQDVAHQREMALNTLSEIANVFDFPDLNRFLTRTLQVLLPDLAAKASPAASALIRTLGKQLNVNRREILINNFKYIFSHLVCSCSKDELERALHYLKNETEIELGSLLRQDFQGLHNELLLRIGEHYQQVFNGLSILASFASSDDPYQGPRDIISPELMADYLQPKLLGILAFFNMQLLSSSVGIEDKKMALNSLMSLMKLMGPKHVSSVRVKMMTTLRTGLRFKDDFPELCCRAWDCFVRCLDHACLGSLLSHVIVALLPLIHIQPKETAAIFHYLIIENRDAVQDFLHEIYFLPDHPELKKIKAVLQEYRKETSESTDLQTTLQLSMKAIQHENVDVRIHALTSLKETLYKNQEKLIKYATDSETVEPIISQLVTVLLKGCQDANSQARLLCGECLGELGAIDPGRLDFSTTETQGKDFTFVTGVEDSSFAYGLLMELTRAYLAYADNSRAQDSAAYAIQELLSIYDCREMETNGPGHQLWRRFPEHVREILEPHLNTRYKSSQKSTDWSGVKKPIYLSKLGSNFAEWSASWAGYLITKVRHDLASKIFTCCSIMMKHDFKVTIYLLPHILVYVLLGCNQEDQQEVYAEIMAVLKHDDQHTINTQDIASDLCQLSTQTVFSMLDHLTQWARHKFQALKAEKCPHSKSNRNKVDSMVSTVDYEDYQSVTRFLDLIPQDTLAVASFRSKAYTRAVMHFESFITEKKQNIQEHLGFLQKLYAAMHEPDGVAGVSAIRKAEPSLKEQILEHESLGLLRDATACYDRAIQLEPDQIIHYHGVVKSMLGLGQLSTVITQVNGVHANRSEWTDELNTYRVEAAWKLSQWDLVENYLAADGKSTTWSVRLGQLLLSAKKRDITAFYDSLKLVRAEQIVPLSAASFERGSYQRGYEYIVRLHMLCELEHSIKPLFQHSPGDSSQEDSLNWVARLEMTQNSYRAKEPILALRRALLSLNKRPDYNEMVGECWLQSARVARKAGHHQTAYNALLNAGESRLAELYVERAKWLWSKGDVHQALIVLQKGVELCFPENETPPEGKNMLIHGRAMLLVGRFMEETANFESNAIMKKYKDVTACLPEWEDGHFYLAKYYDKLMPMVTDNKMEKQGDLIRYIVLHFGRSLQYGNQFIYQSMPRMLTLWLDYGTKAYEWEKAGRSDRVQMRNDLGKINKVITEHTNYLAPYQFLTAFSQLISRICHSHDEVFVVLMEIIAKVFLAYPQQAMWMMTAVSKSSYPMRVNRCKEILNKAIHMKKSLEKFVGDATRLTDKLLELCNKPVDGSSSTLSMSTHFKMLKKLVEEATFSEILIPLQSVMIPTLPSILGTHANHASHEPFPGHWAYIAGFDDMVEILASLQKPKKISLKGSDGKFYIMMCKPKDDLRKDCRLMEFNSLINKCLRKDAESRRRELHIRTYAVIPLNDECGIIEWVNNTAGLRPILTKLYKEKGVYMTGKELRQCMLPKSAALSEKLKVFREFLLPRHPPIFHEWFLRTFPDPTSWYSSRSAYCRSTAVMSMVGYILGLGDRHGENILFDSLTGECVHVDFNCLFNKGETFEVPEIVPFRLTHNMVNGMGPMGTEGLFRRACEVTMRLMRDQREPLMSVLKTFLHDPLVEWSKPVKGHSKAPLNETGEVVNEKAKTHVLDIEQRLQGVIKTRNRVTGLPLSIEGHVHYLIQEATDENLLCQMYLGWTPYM
Sequence of ATR kinase (Q8WXE1 whole entry partner): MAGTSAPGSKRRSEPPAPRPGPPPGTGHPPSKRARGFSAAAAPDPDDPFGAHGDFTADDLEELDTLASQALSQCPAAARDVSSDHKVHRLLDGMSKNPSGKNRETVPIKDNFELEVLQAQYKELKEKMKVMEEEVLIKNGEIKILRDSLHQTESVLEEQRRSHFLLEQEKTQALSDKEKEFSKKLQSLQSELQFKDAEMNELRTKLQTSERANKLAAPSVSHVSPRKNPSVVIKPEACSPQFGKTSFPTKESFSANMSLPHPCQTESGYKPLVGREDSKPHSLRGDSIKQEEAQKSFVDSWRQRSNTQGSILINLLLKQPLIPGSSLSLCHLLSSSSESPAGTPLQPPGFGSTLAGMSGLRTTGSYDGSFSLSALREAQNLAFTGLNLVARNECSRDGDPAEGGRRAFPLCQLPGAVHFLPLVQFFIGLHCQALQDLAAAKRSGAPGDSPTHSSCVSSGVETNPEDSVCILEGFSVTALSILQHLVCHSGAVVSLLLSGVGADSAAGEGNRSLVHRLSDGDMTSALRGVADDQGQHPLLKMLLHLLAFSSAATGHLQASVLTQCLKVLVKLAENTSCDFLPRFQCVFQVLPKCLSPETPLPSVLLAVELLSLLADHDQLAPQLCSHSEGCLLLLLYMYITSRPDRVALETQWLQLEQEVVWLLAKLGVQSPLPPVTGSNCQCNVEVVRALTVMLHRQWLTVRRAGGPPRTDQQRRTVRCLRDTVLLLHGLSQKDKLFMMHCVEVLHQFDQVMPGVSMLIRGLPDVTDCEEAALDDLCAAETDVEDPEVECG

`Cc1cc(-c2nsc3c(C4(S(C)(=O)=O)CC4)cc(N4CCOC[C@H]4C)nc23)[nH]n1` [Example 50, (R)-3-methyl-4-(3-(3-methyl-1H-pyrazol-5-yl)-7-(1-(methylsulfonyl)cyclopropyl)isothiazolo[4,5-b]pyridin-5-yl)morpholine]: the IC50 (commonly the point on the concentration scale where inhibition reaches its midpoint) with LoVo (CCL-229) cells was 0.017 µM; at ATR kinase, under 0.1 µM.
Taken in the same sequence, the figures for `Cc1cc(-c2nsc3c(S(=O)(=O)C4CC4)cc(N4CCOC[C@H]4C)nc23)[nH]n1` [Example 85, (R)-4-(7-(cyclopropylsulfonyl)-3-(3-methyl-1H-pyrazol-5-yl)isothiazolo[4,5-b]pyridin-5-yl)-3-methylmorpholine] were 0.004 µM and under 0.1 µM.
On to `C[C@@H]1COCCN1c1cc(-c2cccnc2F)n2ncc(-c3ccn[nH]3)c2n1` [Example 6, (R)-4-(7-(2-fluoropyridin-3-yl)-3-(1H-pyrazol-5-yl)pyrazolo[1,5-a]pyrimidin-5-yl)-3-methylmorpholine], for which the IC50 in the experiment on LoVo (CCL-229) cells was 0.803 µM; on ATR kinase it was under 0.1 µM.
Taken in the same sequence, the figures for `Cc1cc(-c2nsc3c(C4(C#N)CCCC4)cc(N4CCOC[C@H]4C)nc23)[nH]n1` [Example 80, (R)-1-(3-(3-methyl-1H-pyrazol-5-yl)-5-(3-methylmorpholino)isothiazolo[4,5-b]pyridin-7-yl)cyclopentane-1-carbonitrile] were 0.01 µM and under 0.1 µM.
Taken in the same sequence, the figures for `Cc1cc(-c2nc(Cl)c3c(-c4ccnn4C)cc(N4CCOC[C@H]4C)nn23)[nH]n1` [Example 62, (3R)-4-[5-chloro-4-(1-methyl-1H-pyrazol-5-yl)-7-(3-methyl-1H-pyrazol-5-yl)imidazo[1,5-b]pyridazin-2-yl]-3-methylmorpholine] were 0.0146 µM and under 0.1 µM.
As to `C[C@@H]1COCCN1c1cc(-c2ccnn2C)n2ncc(-c3ccn[nH]3)c2n1` [Example 1, (R)-3-methyl-4-(7-(1-methyl-1H-pyrazol-5-yl)-3-(1H-pyrazol-5-yl)pyrazolo[1,5-a]pyrimidin-5-yl)morpholine], the IC50 is 0.491 µM in the experiment with LoVo (CCL-229) cells and under 0.1 µM at ATR kinase.
`C[C@@H]1COCCN1c1cc(C(C)(C)S(C)(=O)=O)c2snc(-c3ccn[nH]3)c2n1` [Example 55, (R)-3-methyl-4-(7-(2-(methylsulfonyl)propan-2-yl)-3-(1H-pyrazol-5-yl)isothiazolo[4,5-b]pyridin-5-yl)morpholine]: the IC50 in the experiment on LoVo (CCL-229) cells was 0.0137 µM; on ATR kinase, under 0.1 µM.
On to `C[C@@H]1COCCN1c1cc(N2CCCCS2(=O)=O)c2snc(-c3ccn[nH]3)c2n1` [Example 76, (R)-2-(5-(3-methylmorpholino)-3-(1H-pyrazol-5-yl)isothiazolo[4,5-b]pyridin-7-yl)-1,2-thiazinane 1,1-dioxide], for which the half-maximal inhibitory concentration (IC50) in the experiment with LoVo (CCL-229) cells was 0.0243 µM; on ATR kinase it was under 0.1 µM.
On to `Cc1cc(-c2ncc3c(-c4ccnn4C)cc(N4CCOC[C@H]4C)nn23)[nH]n1` [Example 34, (R)-3-methyl-4-(4-(1-methyl-1H-pyrazol-5-yl)-7-(3-methyl-1H-pyrazol-5-yl)imidazo[1,5-b]pyridazin-2-yl)morpholine], for which the IC50 in the experiment with LoVo (CCL-229) cells is 0.023 µM; at ATR kinase it was under 0.1 µM.
Turning to `Cc1cc(-c2nsc3c(C4(C#N)CC4)cc(N4CCOC[C@H]4C)nc23)[nH]n1` [Example 52, (R)-1-(3-(3-methyl-1H-pyrazol-5-yl)-5-(3-methylmorpholino)isothiazolo [4,5-b]pyridin-7-yl)cyclopropane-1-carbonitrile], the IC50 was 0.0177 µM with LoVo (CCL-229) cells and under 0.1 µM at ATR kinase.
For the compound `Cc1nnn(C)c1-c1cc(N2CCOC[C@H]2C)nn2c(-c3ccn[nH]3)ncc12` [Example 33, (3R)-4-[4-(dimethyl-1H-1,2,3-triazol-5-yl)-7-(1H-pyrazol-5-yl)imidazo[1,5-b]pyridazin-2-yl]-3-methylmorpholine], the IC50 in the experiment on LoVo (CCL-229) cells is 0.162 µM; on ATR kinase it was under 0.1 µM.
The corresponding values for `C[C@@H]1COCCN1c1cc(C2(S(C)(=O)=O)CC2)n2ncc(-c3ccn[nH]3)c2n1` [Example 5, (R)-3-methyl-4-(7-(1-(methylsulfonyl)cyclopropyl)-3-(1H-pyrazol-5-yl)pyrazolo[1,5-a]pyrimidin-5-yl)morpholine] are 0.516 µM and under 0.1 µM.
The corresponding values for `C[C@@H]1COCCN1c1cc(C2(S(C)(=O)=O)CC2)c2cnc(-c3ccn[nH]3)n2n1` [Example 30, (R)-3-methyl-4-(4-(1-(methylsulfonyl)cyclopropyl)-7-(1H-pyrazol-5-yl)imidazo[1,5-b]pyridazin-2-yl)morpholine] are 0.152 µM and under 0.1 µM.
Taken in the same sequence, the figures for `Cc1cc(-c2cnn3c(-c4ccnn4C)cc(N4CCOC[C@H]4C)nc23)[nH]n1` [Example 18, (R)-3-methyl-4-(7-(1-methyl-1H-pyrazol-5-yl)-3-(3-methyl-1H-pyrazol-5-yl)pyrazolo[1,5-a]pyrimidin-5-yl)morpholine] were 0.384 µM and under 0.1 µM.
Turning to `C[C@@H]1COCCN1c1cc(-c2ccnn2C)c2cnc(-c3ccn[nH]3)n2n1` [Example 27, (R)-3-methyl-4-(4-(1-methyl-1H-pyrazol-5-yl)-7-(1H-pyrazol-5-yl)imidazo[1,5-b]pyridazin-2-yl)morpholine], the IC50 in the experiment with LoVo (CCL-229) cells was 0.067 µM; at ATR kinase, under 0.1 µM.
Taken in the same sequence, the figures for `C[C@@H]1COCCN1c1cc(C2(S(C)(=O)=O)CC2)c2ncc(-c3ccn[nH]3)n2n1` [Example 22, (R)-3-methyl-4-(8-(1-(methylsulfonyl)cyclopropyl)-3-(1H-pyrazol-5-yl)imidazo[1,2-b]pyridazin-6-yl)morpholine] were 0.622 µM and under 0.1 µM.
Taken in the same sequence, the figures for `C[C@@H]1COCCN1c1cc(-c2ccnn2C)c2snc(-c3ccn[nH]3)c2n1` [Example 29, (3R)-3-methyl-4-[7-(1-methyl-1H-pyrazol-5-yl)-3-(1H-pyrazol-5-yl)-[1,2]thiazolo[4,5-b]pyridin-5-yl]morpholine] were 0.014 µM and under 0.1 µM.
Turning to `Cc1cc(-c2nsc3c(C4(C#N)CCOCC4)cc(N4CCOC[C@H]4C)nc23)[nH]n1` [Example 84, (R)-4-(3-(3-methyl-1H-pyrazol-5-yl)-5-(3-methylmorpholino)isothiazolo[4,5-b]pyridin-7-yl)tetrahydro-2H-pyran-4-carbonitrile], the IC50 in the experiment on LoVo (CCL-229) cells was 0.009 µM; at ATR kinase, under 0.1 µM.
With `Cc1cc(-c2ncc3c(C(C)(C)C#N)cc(N4CCOC[C@H]4C)nn23)[nH]n1` [Example 64, (R)-2-methyl-2-(7-(3-methyl-1H-pyrazol-5-yl)-2-(3-methylmorpholino)imidazo[1,5-b]pyridazin-4-yl)propanenitrile], the IC50 in the experiment on LoVo (CCL-229) cells is 0.0151 µM; on ATR kinase it was under 0.1 µM.
Taken in the same sequence, the figures for `C[C@@H]1COCCN1c1cc(C2(C#N)CCCCC2)c2cnc(-c3ccn[nH]3)n2n1` [Example 60, (R)-1-(2-(3-methylmorpholino)-7-(1H-pyrazol-5-yl)imidazo[1,5-b]pyridazin-4-yl)cyclohexane-1-carbonitrile] were 0.0041 µM and under 0.1 µM.
The corresponding values for `Cc1cc(-c2nsc3c(C(C)(C)S(C)(=O)=O)cc(N4CCOC[C@H]4C)nc23)[nH]n1` [Example 56, (R)-3-methyl-4-(3-(3-methyl-1H-pyrazol-5-yl)-7-(2-(methylsulfonyl)propan-2-yl)isothiazolo[4,5-b]pyridin-5-yl)morpholine] are 0.019 µM and under 0.1 µM.

The values above are taken from patent US20230295166A1, “ATR INHIBITORS AND USES THEREOF” (ANTENGENE DISCOVERY LIMITED, priority 2020, published 2023).
